Test [1] concerns the target KHK-C expressed in NRK-52E cells (Homo sapiens (Human), UniProt P50053). Briefly: KHK-C Cell-based Assay (EC50), NRK CTG, fructose-mediated ATP-depletion.
Another test concerns the target human KHK-C (Homo sapiens (Human), UniProt P50053). Briefly: KHK Biochemical Assay (IC50), ADP-Glo, KHK-C. The following applies: ADP-Glo; average of at least two separate assays. Put shortly: (§1)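 Luminescent ADP-Glo read-out of ADP made by His-tagged KHK (BL21 (DE3) expression, Ni-NTA). Enzyme and compound sat together 30 min before ATP/fructose addition, then reacted 4 h at RT in Hepes pH 7.4 buffer with KCl, MgCl2, Triton-X. Quench 1 h, detection 1 h.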

The next test has as its target human KHK-A (Homo sapiens (Human), UniProt P50053). Description: KHK Biochemical Assay (IC50), ADP-Glo, KHK-A. The following applies: ADP-Glo; average of at least two separate assays. In outline: as §1

A value given as a limit tells only on which side of the number the result lay.

Chain of human KHK-C (P50053 whole entry): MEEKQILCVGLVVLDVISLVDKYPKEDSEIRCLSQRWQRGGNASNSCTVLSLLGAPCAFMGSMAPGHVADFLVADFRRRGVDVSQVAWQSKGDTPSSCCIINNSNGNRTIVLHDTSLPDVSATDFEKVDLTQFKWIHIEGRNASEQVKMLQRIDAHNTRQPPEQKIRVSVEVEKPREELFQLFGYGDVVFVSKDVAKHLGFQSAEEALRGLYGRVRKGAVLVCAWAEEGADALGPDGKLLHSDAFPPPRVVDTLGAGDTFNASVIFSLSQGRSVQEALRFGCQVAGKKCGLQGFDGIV
Chain of KHK-C expressed in NRK-52E cells (P50053 whole entry): as above
Chain of human KHK-A (P50053 other isoform, or with tags, fused parts or gaps): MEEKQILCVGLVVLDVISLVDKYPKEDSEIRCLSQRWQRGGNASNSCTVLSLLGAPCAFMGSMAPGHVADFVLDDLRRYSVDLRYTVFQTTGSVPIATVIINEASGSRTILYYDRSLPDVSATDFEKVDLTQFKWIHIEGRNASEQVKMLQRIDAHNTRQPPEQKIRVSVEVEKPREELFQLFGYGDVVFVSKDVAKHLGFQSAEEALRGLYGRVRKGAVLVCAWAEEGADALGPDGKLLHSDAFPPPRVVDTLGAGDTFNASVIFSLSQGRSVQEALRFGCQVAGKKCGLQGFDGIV

A word on the EC50: it is the concentration that produces a half-maximal response. Read a low EC50 as greater potency. By IC50 is commonly meant the concentration that gives 50% inhibition. Regarding `C[C@H]1CCN1c1nc2c(c(-c3ccc4[nH]c(=O)n(C)c4c3)n1)CCC2` [Example 251, 3-methyl-5-[2-[(2S)-2-methylazetidin-1-yl]-6,7-dihydro-5H-cyclopenta[d]pyrimidin-4-yl]-1H-benzimidazol-2-one], in test [1], the EC50 was found to be 243 nM. Also, the IC50 on human KHK-C is 135 nM; against human KHK-A, 126 nM.

The compound `C[C@H]1CCN1c1nc2c(c(-c3ccc(C4(C(N)=O)CC4)cc3)n1)CCC2` [Example 252, 1-[4-[2-[(2S)-2-methylazetidin-1-yl]-6,7-dihydro-5H-cyclopenta[d]pyrimidin-4-yl]phenyl]cyclopropanecarboxamide] had an EC50 in test [1] of 1670 nM. Also, the IC50 against human KHK-C was 946 nM; against human KHK-A it was 783 nM.

In test [1], `C[C@H]1CCN1c1nc2c(c(-c3cccc(C4(C(=O)O)CC4)c3)n1)CCC2` [Example 253, 1-[3-[2-[(2S)-2-methylazetidin-1-yl]-6,7-dihydro-5H-cyclopenta[d]pyrimidin-4-yl]phenyl]cyclopropanecarboxylic acid] registered an EC50 of 2770 nM. The IC50 against human KHK-C was 239 nM; at human KHK-A, 204 nM.

For the compound `C[C@H]1CCN1c1nc2c(c(-c3cccc(C4(C(N)=O)CC4)c3)n1)CCC2` [Example 254, 1-[3-[2-[(2S)-2-methylazetidin-1-yl]-6,7-dihydro-5H-cyclopenta[d]pyrimidin-4-yl]phenyl]cyclopropanecarboxamide], the EC50 in test [1] stood at 607 nM. Also, the figures for the IC50 on human KHK-C and on human KHK-A were 517 nM and 600 nM, respectively.

`C[C@H]1CCN1c1nc2c(c(-c3ccc(C(O)C4(C#N)CC4)cc3)n1)CCC2` (stereo partly drawn) [Example 255, 1-[hydroxy-[4-[2-[(2S)-2-methylazetidin-1-yl]-6,7-dihydro-5H-cyclopenta[d]pyrimidin-4-yl]phenyl]methyl]cyclopropanecarbonitrile] had an EC50 in test [1] of 70.7 nM. Moreover, the 50% inhibitory concentration (IC50) was determined as 65.9 nM against human KHK-C and 49.8 nM on human KHK-A.

On to `C[C@H]1CCN1c1nc2c(c(-c3ccc(C(O)C(F)F)cc3)n1)CCC2` (stereo partly drawn) [Example 256, 2,2-difluoro-1-[4-[2-[(2S)-2-methylazetidin-1-yl]-6,7-dihydro-5H-cyclopenta[d]pyrimidin-4-yl]phenyl]ethanol], for which, in test [1], the EC50 worked out at 161 nM. Moreover, the half-inhibitory concentration (IC50) against human KHK-C came to 262 nM; against human KHK-A, 519 nM.

On to `C[C@H]1CCN1c1nc2c(c(-c3ccc(C(O)CF)cc3)n1)CCC2` (stereo partly drawn) [Example 257, 2-fluoro-1-[4-[2-[(2S)-2-methylazetidin-1-yl]-6,7-dihydro-5H-cyclopenta[d]pyrimidin-4-yl]phenyl]ethanol], for which the EC50 in test [1] amounted to 185 nM. The IC50 came out at 128 nM on human KHK-C and 201 nM against human KHK-A.

`C[C@H]1CCN1c1nc2c(c(-c3cccc(OC(F)F)c3)n1)CCC2` [Example 258, 4-[3-(difluoromethoxy)phenyl]-2-[(2S)-2-methylazetidin-1-yl]-6,7-dihydro-5H-cyclopenta[d]pyrimidine]: the concentration for a half-maximal effect (EC50) in test [1] came to 525 nM. For the same compound, the results for the IC50 on human KHK-C and at human KHK-A were 2850 nM and 2000 nM, respectively.

Turning to `C[C@H]1CCN1c1nc2c(c(-c3cnc4c(c3)NCCO4)n1)CCC2` [Example 263, 7-[2-[(2S)-2-methylazetidin-1-yl]-6,7-dihydro-5H-cyclopenta[d]pyrimidin-4-yl]-2,3-dihydro-1H-pyrido[2,3-b][1,4]oxazine], a half-maximal effect in test [1] (EC50) was put at 155 nM. Besides, the figures for the half-maximal inhibitory concentration (IC50) against human KHK-C and on human KHK-A were 50 nM and 96.2 nM, respectively.

Consider `C[C@]1(O)CCN(c2nc3c(c(-c4ccc(C(N)=O)cc4)n2)CCC3)C1` [Example 268, 4-[2-[(38)-3-hydroxy-3-methyl-pyrrolidin-1-yl]-6,7-dihydro-5H-cyclopenta[d]pyrimidin-4-yl]benzamide], for which, in test [1], the EC50 was above 5000 nM. Moreover, the IC50 against human KHK-C and against human KHK-A was above 5000 nM throughout.

For `C[C@H]1CCN1c1nc(-c2cccc(C(N)=O)c2)c2c(cnn2C)n1` [Example 271, (S)-3-(1-methyl-5-(2-methylazetidin-1-yl)-1H-pyrazolo[4,3-d]pyrimidin-7-yl)benzamide], the EC50 in test [1] stood at 2320 nM. In addition, the IC50 came out at 532 nM against human KHK-C and 518 nM against human KHK-A.

Compound `C[C@H]1CCN1c1nc2c(c(-c3ccc4c(c3)CCO4)n1)CCC2` [Example 274, (S)-4-(2,3-dihydrobenzofuran-5-yl)-2-(2-methylazetidin-1-yl)-6,7-dihydro-5H-cyclopenta[d]pyrimidine] registered an EC50 in test [1] of 205 nM. Besides, the results for the IC50 against human KHK-C and on human KHK-A were 142 nM and 204 nM, respectively.

Turning to `C[C@H]1CCN1c1nc2c(c(-c3ccc4c(ccn4C)c3)n1)CCC2` [Example 275, (S)-4-(1-methyl-1H-indol-5-yl)-2-(2-methylazetidin-1-yl)-6,7-dihydro-5H-cyclopenta[d]pyrimidine], the concentration giving a half-maximal response (EC50) in test [1] was 291 nM. Moreover, the IC50 was found to be 618 nM on human KHK-C and 1040 nM on human KHK-A.

As to `CC(O)c1cccc(-c2nc(N3CC[C@@H]3C)nc3c2CCC3)c1` (stereo partly drawn) [Example 276, 1-(3-(2-((S)-2-methylazetidin-1-yl)-6,7-dihydro-5H-cyclopenta[d]pyrimidin-4-yl)phenyl)ethan-1-ol], the EC50 in test [1] was 110 nM. For the same compound, the IC50 is 69.5 nM at human KHK-C and 66.6 nM against human KHK-A.

Compound `C[C@H]1CCN1c1nc2c(c(-c3cccc(CNS(C)(=O)=O)c3)n1)CCC2` [Example 277, (S)—N-(3-(2-(2-methylazetidin-1-yl)-6,7-dihydro-5H-cyclopenta[d]pyrimidin-4-yl)benzyl)methanesulfonamide] came in with an EC50 in test [1] of 26.7 nM. Besides, the figures for the IC50 against human KHK-C and at human KHK-A were 15.3 nM and 11.9 nM, respectively.

Take `C[C@H]1[C@H](F)CN1c1nc2c(c(-c3cccc(CNS(C)(=O)=O)c3)n1)CCC2` [Example 284]: in test [1], the concentration for a half-maximal effect (EC50) is 55.7 nM. For the same compound, the IC50 was found to be 16.4 nM at human KHK-C and 21.8 nM against human KHK-A.

In turn, `C[C@H]1[C@H](O)CN1c1nc2c(c(-c3ccc4c(c3)CCNC4=O)n1)CCC2` [Example 288] came in with a concentration giving a half-maximal response (EC50) in test [1] of 108 nM. The IC50 at human KHK-C was found to be 44.3 nM; at human KHK-A it was 103 nM.

In test [1], `C[C@H]1[C@H](F)CN1c1nc2c(c(-c3ccc4c(c3)CCNC4=O)n1)CCC2` [Example 289] had an EC50 of 34.5 nM. Further, the values for the 50% inhibitory concentration (IC50) at human KHK-C and against human KHK-A were 17.5 nM and 57.9 nM, respectively.

Regarding `C[C@H]1[C@H](F)CN1c1nc2c(c(-c3cccc(NS(C)(=O)=O)c3)n1)CCC2` [Example 290, N-(3-(2-((2S,3R)-3-fluoro-2-methylazetidin-1-yl)-6,7-dihydro-5H-cyclopenta[d]pyrimidin-4-yl)phenyl)methanesulfonamide], in test [1], the EC50 was found to be 71.3 nM. Moreover, the IC50 was determined as 30.9 nM on human KHK-C and 50.5 nM at human KHK-A.

For the compound `C[C@H]1CCN1c1nc2c(c(-c3ccc(C(N)=O)c(Cl)c3)n1)CCC2` [Example 303, (S)-2-chloro-4-(2-(2-methylazetidin-1-yl)-6,7-dihydro-5H-cyclopenta[d]pyrimidin-4-yl)benzamide], the EC50 in test [1] was 91.5 nM. Moreover, the results for the IC50 against human KHK-C and against human KHK-A were 49.7 nM and 29.7 nM, respectively.

As for `C[C@H]1[C@H](O)CN1c1nc2c(c(-c3ccc(C(N)=O)c(F)c3)n1)CCC2` [Example 307], the EC50 in test [1] was 166 nM. Also, the IC50 against human KHK-C came out at 69.9 nM; on human KHK-A, 86.5 nM.

For `C[C@H]1[C@H](O)CN1c1nc2c(c(-c3ccc(C(N)=O)c(Cl)c3)n1)CCC2` [Example 308], the EC50 in test [1] is 294 nM. Further, the IC50 against human KHK-C amounted to 97.5 nM; against human KHK-A, 130 nM.

Compound `COc1cc(-c2nc(N3CC[C@@H]3C)nc3c2CCC3)ccc1C(N)=O` [Example 309, (S)-2-methoxy-4-(2-(2-methylazetidin-1-yl)-6,7-dihydro-5H-cyclopenta[d]pyrimidin-4-yl)benzamide] came in with an EC50 in test [1] of 15.8 nM. Also, the IC50 against human KHK-C worked out at 17.4 nM; on human KHK-A, 19 nM.

Take `COc1cc(-c2nc(N3CC[C@@H]3C)nc3c2CCC3)ccc1C#N` [Example 310, (S)-2-methoxy-4-(2-(2-methylazetidin-1-yl)-6,7-dihydro-5H-cyclopenta[d]pyrimidin-4-yl)benzonitrile]: a half-maximal effect in test [1] (EC50) was put at 1810 nM. For the same compound, the IC50 came to 555 nM on human KHK-C and 449 nM against human KHK-A.

Turning to `C[C@H]1CCN1c1nc2c(c(-c3ccc(C4(NC(=O)OC(C)(C)C)CCC4)cc3)n1)CCC2` [Example 311, (S)-tert-butyl (1-(4-(2-(2-methylazetidin-1-yl)-6,7-dihydro-5H-cyclopenta[d]pyrimidin-4-yl)phenyl)cyclobutyl)carbamate], the half-maximal effective concentration (EC50) in test [1] is 915 nM. Also, the IC50 against human KHK-C and on human KHK-A was above 5000 nM in each case.

In test [1], `C[C@H]1CCN1c1nc2c(c(-c3ccc(C#N)c(F)c3)n1)CCC2` [Example 313, (S)-2-fluoro-4-(2-(2-methylazetidin-1-yl)-6,7-dihydro-5H-cyclopenta[d]pyrimidin-4-yl)benzonitrile] displayed a concentration giving a half-maximal response (EC50) of 2080 nM. In addition, the IC50 against human KHK-C is 1150 nM; at human KHK-A, 1030 nM.

Turning to `C[C@H]1CCN1c1nc2c(c(-c3ccc(C#N)c(Cl)c3)n1)CCC2` [Example 314, (S)-2-chloro-4-(2-(2-methylazetidin-1-yl)-6,7-dihydro-5H-cyclopenta[d]pyrimidin-4-yl)benzonitrile], the EC50 in test [1] amounted to 4490 nM. For the same compound, the IC50 on human KHK-C is 1940 nM; at human KHK-A, 2020 nM.

Turning to `C[C@H]1CCN1c1nc2c(c(-c3cc(F)c(C(N)=O)c(F)c3)n1)CCC2` [Example 315, (S)-2,6-difluoro-4-(2-(2-methylazetidin-1-yl)-6,7-dihydro-5H-cyclopenta[d]pyrimidin-4-yl)benzamide], in test [1], the EC50 stood at 57.3 nM. In addition, the half-inhibitory concentration (IC50) was 34 nM at human KHK-C and 31.5 nM against human KHK-A.

Values taken from patent US12410160B2 (Gilead Sciences, Inc., priority 2021, dated 2025).
